Measurements taken from ChEMBL document CHEMBL3727348, “3-(aryl or heteroaryl) methyleneindolin-2-one derivatives as inhibitors of cancer stem cell pathway kinases for the treatment of cancer” (2014).

Columns and labels:
ACHN [1] = test: Cytotoxic activity against human ACHN bulk cells incubated for 72 hrs by Cell-titer-Glo luminescence assay; format: functional, cell-based
[2] = target: T1, Ribosomal protein S6 kinase (Homo sapiens) (UniProt P51812+Q9UBS0+O75676+Q15349+O75582+P23443+Q9UK32+Q15418); test: Inhibition of RPS6 kinase in human HeLa cells assessed as p-RPS6 Ser240/244 phosphorylation level at 5 uM incubated for 6 hrs by SDS-PAGE based chemiluminescence assay; format: cell-based; design: scale not given: the % may be the effect or the level left
FaDu [3] = test: Cytotoxic activity against human FADU bulk cells incubated for 72 hrs by Cell-titer-Glo luminescence assay; format: functional, cell-based
A549 [4] = test: Cytotoxic activity against human A549 bulk cells incubated for 72 hrs by Cell-titer-Glo luminescence assay; format: functional, cell-based; settings: A549, 72 h
[5] = target: AMP-activated protein kinase, AMPK (Homo sapiens) (UniProt P54646+O43741+P54619+Q9UGJ0+Q9Y478+Q13131+Q9UGI9); test: Inhibition of AMPK in human HeLa cells assessed as kinase phosphorylation level at 5 uM incubated for 6 hrs by SDS-PAGE based chemiluminescence assay; format: cell-based; design: scale not given: the % may be the effect or the level left
[6] = target: T1, Ribosomal protein S6 kinase (Homo sapiens); test: Inhibition of RPS6 kinase in human HeLa cells assessed as p-RPS6 Ser235/236 phosphorylation level at 5 uM incubated for 6 hrs by SDS-PAGE based chemiluminescence assay; format: cell-based; design: scale not given: the % may be the effect or the level left
[7] = target: Serine/threonine-protein kinase RIO2 (Homo sapiens) (UniProt Q9BVS4); test: Inhibition of N-terminal GST-fused full length human recombinant RIOK2 expressed in baculovirus Sf21 cells assessed as reduction in kinase auto-phosphorylation at 10 uM in presence of ATP incubated for 1 hr by ELISA method
FaDu [8] = test: Cytotoxic activity against human FADU cancer stem cells incubated for 72 hrs by Cell-titer-Glo luminescence assay; format: functional, cell-based
ACHN [9] = test: Cytotoxic activity against human ACHN cancer stem cells incubated for 72 hrs by Cell-titer-Glo luminescence assay; format: functional, cell-based
A549 [10] = test: Cytotoxic activity against human A549 cancer stem cells incubated for 72 hrs by Cell-titer-Glo luminescence assay; format: functional, cell-based; settings: A549, 72 h

Sequence of Serine/threonine-protein kinase RIO2 (Homo sapiens) (Q9BVS4 whole entry, looked up, the tested form may be a part): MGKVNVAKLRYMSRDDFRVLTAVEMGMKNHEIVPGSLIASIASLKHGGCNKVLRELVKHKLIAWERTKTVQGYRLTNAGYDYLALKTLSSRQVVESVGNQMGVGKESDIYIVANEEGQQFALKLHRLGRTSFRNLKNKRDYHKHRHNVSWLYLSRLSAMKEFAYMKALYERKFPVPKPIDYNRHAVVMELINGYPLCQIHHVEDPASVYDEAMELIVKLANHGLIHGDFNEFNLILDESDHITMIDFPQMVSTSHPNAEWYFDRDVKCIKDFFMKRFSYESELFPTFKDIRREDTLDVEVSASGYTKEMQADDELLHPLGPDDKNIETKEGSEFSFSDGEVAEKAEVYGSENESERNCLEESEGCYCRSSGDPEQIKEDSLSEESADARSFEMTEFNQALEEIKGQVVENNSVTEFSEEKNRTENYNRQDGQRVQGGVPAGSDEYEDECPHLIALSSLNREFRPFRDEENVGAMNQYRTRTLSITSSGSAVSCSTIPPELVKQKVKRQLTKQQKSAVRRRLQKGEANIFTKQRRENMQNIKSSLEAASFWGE

| Activity [2] | Activity [5] | Activity [6] | inhibition [7] | SMILES | IC50 (ACHN [1]) | IC50 (FaDu [3]) | IC50 (A549 [4]) | IC50 (FaDu [8]) | IC50 (ACHN [9]) | IC50 (A549 [10]) |
| --- | --- | --- | --- | --- | --- | --- | --- | --- | --- | --- |
| 50% | 113% | 51% | – | Cc1cc(C)c(/C=C2\C(=O)Nc3c2cccc3-c2cncnc2)[nH]1 | 26.9 µM | 28.1 µM | 25.2 µM | – | – | – |
| – | – | – | 14% | CCN(CC)CCNC(=O)c1c(C)[nH]c(/C=C2\C(=O)Nc3ccc(-c4ccc(-c5ccccc5)s4)cc32)c1C | 7.6 µM | 4.74 µM | – | 1.2 µM | – | – |
| 83% | 108% | 86% | – | Cc1cc(C)c(/C=C2\C(=O)Nc3c2cccc3-c2cncc3ccccc23)[nH]1 | 21 µM | 25.8 µM | 19.7 µM | – | – | – |
| 44% | 118% | 4% | – | Cc1[nH]c(/C=C2\C(=O)Nc3cc(-c4csc(-c5ccccc5)n4)ccc32)c(C)c1C(=O)N1CCOCC1 | – | – | – | 41.9 µM | – | – |
| – | – | – | 69% | Cc1[nH]c(/C=C2\C(=O)Nc3ccc(-c4cnn(-c5ccccc5)c4)cc32)c(C)c1C(=O)NC1CNCC(c2ccccc2)C1 (stereo not drawn) | – | – | – | – | – | – |
| 41% | 21% | 5% | – | CCN(CC)CCNC(=O)c1c(C)[nH]c(/C=C2\C(=O)Nc3ccc(-c4ccc(-c5cccs5)s4)cc32)c1C | – | 2.51 µM | – | 0.83 µM | – | – |
| 56% | 150% | 5% | – | CCN(CC)CCNC(=O)c1c(C)[nH]c(/C=C2\C(=O)Nc3cc(-c4ccc(-c5ccccc5)s4)ccc32)c1C | – | – | – | 30.5 µM | – | – |
| – | – | – | – | CCN(CC)CCNC(=O)c1c(C)[nH]c(/C=C2\C(=O)Nc3cc(-c4ccc(C(=O)c5ccccc5)cc4)ccc32)c1C | 4.11 µM | 4.46 µM | 3.65 µM | 1.46 µM | 1.63 µM | 3.16 µM |
| – | – | – | – | CCN(CC)CCNC(=O)c1c(C)[nH]c(/C=C2\C(=O)Nc3cc(-c4cccc5ncccc45)ccc32)c1C | 2.66 µM | 4.83 µM | 2.88 µM | 2.64 µM | 0.42 µM | 8.61 µM |
| – | – | – | – | Cc1cc(C)c(/C=C2\C(=O)Nc3ccc(-c4csc(-n5ccnc5)n4)cc32)[nH]1 | 8.84 µM | 14.5 µM | 9.31 µM | 37.4 µM | 2.72 µM | 35 µM |
| – | – | – | – | CCN(CC)CCNC(=O)c1c(C)[nH]c(/C=C2\C(=O)Nc3ccc(-c4ccc(C#N)c(F)c4)cc32)c1C | 13.3 µM | 14 µM | 14.5 µM | 3.48 µM | 1.71 µM | 12 µM |
| 67% | 105% | 67% | – | COc1ncccc1-c1cccc2c1/C(=C/c1[nH]c(C)cc1C)C(=O)N2 | – | 22.6 µM | – | – | – | – |
| – | – | – | – | CCN(CC)CCNC(=O)c1cc(C)c(/C=C2\C(=O)Nc3ccc(-c4csc(-c5ccccc5)n4)cc32)[nH]1 | 14.9 µM | 11.4 µM | 4 µM | 3.13 µM | 4.04 µM | 26.7 µM |
| – | – | – | – | CCN(CC)CCNC(=O)c1c(C)[nH]c(/C=C2\C(=O)Nc3ccc(-c4cncnc4)cc32)c1C | 3.66 µM | 4.55 µM | 7.33 µM | 10.1 µM | 0.55 µM | 18 µM |
| – | – | – | – | CCN(CC)CCNC(=O)c1c(C)[nH]c(/C=C2\C(=O)Nc3cc(-c4cnc5ccccc5n4)ccc32)c1C | 10.9 µM | 7.45 µM | 7.07 µM | 2.24 µM | 6.97 µM | 42.6 µM |
| 65% | 83% | 68% | – | Cc1cc(C)c(/C=C2\C(=O)Nc3c2cccc3-c2ccncc2)[nH]1 | – | – | 23.5 µM | – | – | – |
| – | – | – | – | CCN(CC)CCNC(=O)c1c(C)[nH]c(/C=C2\C(=O)Nc3ccc(-c4ccncc4)cc32)c1C | 11.6 µM | 6.81 µM | 7.07 µM | 16.2 µM | 2.14 µM | 9.85 µM |
| – | – | – | – | CCN(CC)CCNC(=O)c1c(C)[nH]c(/C=C2\C(=O)Nc3ccc(-c4csc(-n5cccn5)n4)cc32)c1C | 7.88 µM | 4.68 µM | 3.71 µM | 5.11 µM | 0.62 µM | 6.64 µM |
| – | – | – | – | CCN(CC)CCNC(=O)c1c(C)[nH]c(/C=C2\C(=O)Nc3ccc(-c4csc(-n5ccnc5)n4)cc32)c1C | 9.57 µM | 5.57 µM | 6.16 µM | 21.7 µM | 2.99 µM | 18.8 µM |
